Measurements from PubChem BioAssay (NCI).
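At the GI50, growth is halved. Definition used: TGI = concentration required for complete inhibition of growth.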

What was measured:
Experiment in all cases: NCI anticancer screen, dose series, 384-well format
COLO 205 colon = system: COLO 205 colon
NCI-H460 NSCLC = system: NCI-H460 NSCLC
U251 glioblastoma = system: U251 glioblastoma
NCI-H322M lung = system: NCI-H322M lung
PC-3 prostate = system: PC-3 prostate
SF-539 CNS = system: SF-539 CNS
786-0 renal = system: 786-0 renal
SK-OV-3 ovarian = system: SK-OV-3 ovarian
DU-145 prostate = system: DU-145 prostate
CCRF-CEM leukemia = system: CCRF-CEM leukemia
OVCAR-3 ovarian = system: OVCAR-3 ovarian
MDA-MB-231 breast = system: MDA-MB-231 breast
HOP-62 NSCLC = system: HOP-62 NSCLC
LOX IMVI melanoma = system: LOX IMVI melanoma
MDA-MB-435 melanoma = system: MDA-MB-435 melanoma
SK-MEL-5 melanoma = system: SK-MEL-5 melanoma
HL-60(TB) leukemia = system: HL-60(TB) leukemia
UACC-257 melanoma = system: UACC-257 melanoma
KM12 colon = system: KM12 colon
HCT-116 colon = system: HCT-116 colon
NCI/ADR-RES ovarian = system: NCI/ADR-RES ovarian
MALME-3M melanoma = system: MALME-3M melanoma
MOLT-4 leukemia = system: MOLT-4 leukemia
TK-10 renal = system: TK-10 renal
NCI-H226 lung = system: NCI-H226 lung
HCC-2998 colon = system: HCC-2998 colon
ACHN renal = system: ACHN renal
SN12C renal = system: SN12C renal
SK-MEL-28 melanoma = system: SK-MEL-28 melanoma
SR leukemia = system: SR leukemia
OVCAR-5 ovarian = system: OVCAR-5 ovarian
T-47D breast = system: T-47D breast
RXF 393 renal = system: RXF 393 renal
SW-620 colon = system: SW-620 colon
HOP-92 NSCLC = system: HOP-92 NSCLC
RPMI-8226 leukemia = system: RPMI-8226 leukemia
MCF7 breast = system: MCF7 breast
OVCAR-4 ovarian = system: OVCAR-4 ovarian
UO-31 renal = system: UO-31 renal
K-562 leukemia = system: K-562 leukemia
A549 NSCLC = system: A549 NSCLC
HT29 colon = system: HT29 colon
MDA-MB-468 breast = system: MDA-MB-468 breast
HCT-15 colon = system: HCT-15 colon
CAKI-1 renal = system: CAKI-1 renal
BT-549 breast = system: BT-549 breast
IGROV1 ovarian = system: IGROV1 ovarian
SK-MEL-2 melanoma = system: SK-MEL-2 melanoma
OVCAR-8 ovarian = system: OVCAR-8 ovarian
SNB-19 CNS = system: SNB-19 CNS
NCI-H522 lung = system: NCI-H522 lung
SF-268 CNS = system: SF-268 CNS
UACC-62 melanoma = system: UACC-62 melanoma
A498 renal = system: A498 renal
NCI-H23 lung = system: NCI-H23 lung
SF-295 CNS = system: SF-295 CNS
M14 melanoma = system: M14 melanoma

SMILES: COc1cccc2c1C(=O)c1c(O)c3c(c(O)c1C2=O)C[C@@](O)(/C(CO)=N/NC(=O)CCCCCN1C(=O)C=CC1=O)C[C@@H]3O[C@H]1C[C@H](N)[C@H](O)[C@H](C)O1
- GI50 (COLO 205 colon): 36.6 nM
- TGI (COLO 205 colon): 183 nM
- GI50 (NCI-H460 NSCLC): 25.2 nM
- TGI (NCI-H460 NSCLC): 136 nM
- GI50 (U251 glioblastoma): 50.4 nM
- TGI (U251 glioblastoma): 188 nM
- GI50 (NCI-H322M lung): 917 nM
- TGI (NCI-H322M lung): 2680 nM
- GI50 (PC-3 prostate): 407 nM
- TGI (PC-3 prostate): 1940 nM
- GI50 (SF-539 CNS): 38.7 nM
- TGI (SF-539 CNS): 140 nM
- GI50 ([…]-0 renal): 110 nM
- TGI (786-0 renal): 368 nM
- GI50 (SK-OV-3 ovarian): 138 nM
- TGI (SK-OV-3 ovarian): 339 nM
- GI50 (DU-145 prostate): 152 nM
- TGI (DU-145 prostate): 365 nM
- GI50 (CCRF-CEM leukemia): 15.3 nM
- TGI (CCRF-CEM leukemia): 34 nM
- GI50 (OVCAR-3 ovarian): 159 nM
- TGI (OVCAR-3 ovarian): 686 nM
- GI50 (MDA-MB-231 breast): 62.5 nM
- TGI (MDA-MB-231 breast): 206 nM
- GI50 (HOP-62 NSCLC): 103 nM
- TGI (HOP-62 NSCLC): 273 nM
- GI50 (LOX IMVI melanoma): 166 nM
- TGI (LOX IMVI melanoma): 381 nM
- GI50 (MDA-MB-435 melanoma): 268 nM
- TGI (MDA-MB-435 melanoma): 1480 nM
- GI50 (SK-MEL-5 melanoma): 124 nM
- TGI (SK-MEL-5 melanoma): 328 nM
- GI50 (HL-60(TB) leukemia): 15.1 nM
- TGI (HL-60(TB) leukemia): 29.4 nM
- GI50 (UACC-257 melanoma): 180 nM
- TGI (UACC-257 melanoma): 552 nM
- GI50 (KM12 colon): 116 nM
- TGI (KM12 colon): 295 nM
- GI50 (HCT-116 colon): 74.9 nM
- TGI (HCT-116 colon): 626 nM
- GI50 (NCI/ADR-RES ovarian): 12300 nM
- TGI (NCI/ADR-RES ovarian): 44900 nM
- GI50 (MALME-3M melanoma): 152 nM
- TGI (MALME-3M melanoma): 403 nM
- GI50 (MOLT-4 leukemia): 10.9 nM
- TGI (MOLT-4 leukemia): 23 nM
- GI50 (TK-10 renal): 225 nM
- TGI (TK-10 renal): 1040 nM
- GI50 (NCI-H226 lung): 122 nM
- TGI (NCI-H226 lung): 288 nM
- GI50 (HCC-2998 colon): 123 nM
- TGI (HCC-2998 colon): 294 nM
- GI50 (ACHN renal): 258 nM
- TGI (ACHN renal): 1360 nM
- GI50 (SN12C renal): 139 nM
- TGI (SN12C renal): 391 nM
- GI50 (SK-MEL-28 melanoma): 126 nM
- TGI (SK-MEL-28 melanoma): 519 nM
- TGI (SR leukemia): 15.7 nM
- GI50 (OVCAR-5 ovarian): 522 nM
- TGI (OVCAR-5 ovarian): 3000 nM
- GI50 (T-47D breast): 61.5 nM
- TGI (T-47D breast): 280 nM
- GI50 (RXF 393 renal): 45.2 nM
- TGI (RXF 393 renal): 228 nM
- GI50 (SW-620 colon): 59.3 nM
- TGI (SW-620 colon): 829 nM
- GI50 (HOP-92 NSCLC): 37 nM
- TGI (HOP-92 NSCLC): 247 nM
- TGI (RPMI-8226 leukemia): 173 nM
- GI50 (MCF7 breast): 93.6 nM
- TGI (MCF7 breast): 377 nM
- GI50 (OVCAR-4 ovarian): 243 nM
- TGI (OVCAR-4 ovarian): 716 nM
- GI50 (UO-31 renal): 1260 nM
- TGI (UO-31 renal): 3130 nM
- GI50 (K-562 leukemia): 114 nM
- TGI (K-562 leukemia): 1060 nM
- GI50 (A549 NSCLC): 98 nM
- TGI (A549 NSCLC): 1430 nM
- GI50 (HT29 colon): 148 nM
- TGI (HT29 colon): 780 nM
- GI50 (MDA-MB-468 breast): 44.8 nM
- TGI (MDA-MB-468 breast): 169 nM
- GI50 (HCT-15 colon): 470 nM
- TGI (HCT-15 colon): 3110 nM
- GI50 (CAKI-1 renal): 155 nM
- TGI (CAKI-1 renal): 1060 nM
- GI50 (BT-549 breast): 59.9 nM
- TGI (BT-549 breast): 271 nM
- GI50 (IGROV1 ovarian): 346 nM
- TGI (IGROV1 ovarian): 2480 nM
- GI50 (SK-MEL-2 melanoma): 101 nM
- TGI (SK-MEL-2 melanoma): 229 nM
- GI50 (OVCAR-8 ovarian): 141 nM
- TGI (OVCAR-8 ovarian): 1310 nM
- GI50 (SNB-19 CNS): 127 nM
- TGI (SNB-19 CNS): 553 nM
- GI50 (NCI-H522 lung): 29.4 nM
- TGI (NCI-H522 lung): 148 nM
- GI50 (SF-268 CNS): 71.4 nM
- TGI (SF-268 CNS): 372 nM
- GI50 (UACC-62 melanoma): 75.9 nM
- TGI (UACC-62 melanoma): 233 nM
- GI50 (A498 renal): 95.8 nM
- TGI (A498 renal): 1440 nM
- GI50 (NCI-H23 lung): 166 nM
- TGI (NCI-H23 lung): 381 nM
- GI50 (SF-295 CNS): 154 nM
- TGI (SF-295 CNS): 470 nM
- GI50 (M14 melanoma): 72.6 nM
- TGI (M14 melanoma): 258 nM
